Reference: the NIST ThermoML archive (doi:10.1016/j.fluid.2015.03.012)
± gives the expanded uncertainty stated by the source.

Test: mn = molality of the nth substance listed, in mol/kg
Conditions: Survismeter

C[C@H](CCC(=O)[O-])[C@H]1CC[C@H]2[C@@H]3CC[C@@H]4C[C@H](O)CC[C@]4(C)[C@H]3C[C@H](O)[C@]12C.[Na+] [sodium deoxycholate] + O
surface tension liquid-gas [mN/m]
Conditions | 293.15 K | 298.15 K | 303.15 K | 308.15 K | 313.15 K | 318.15 K
m1 = 0.001 | 58.04 ± 1.2 | 55.92 ± 1.2 | 54.2 ± 1.3 | 54.06 ± 1.1 | 54.23 ± 1 | 54.09 ± 1.1
m1 = 0.002 | 55.17 ± 1 | 53.25 ± 1 | 51.68 ± 0.95 | 51.56 ± 0.95 | 51.75 ± 0.9 | 51.62 ± 0.89
m1 = 0.003 | 53.42 ± 1 | 51.34 ± 1 | 49.87 ± 0.93 | 49.77 ± 0.96 | 50.21 ± 0.92 | 50.1 ± 0.79
m1 = 0.004 | 50.47 ± 1.1 | 48.6 ± 1.1 | 47.5 ± 0.84 | 47.19 ± 0.87 | 47.62 ± 0.88 | 48.2 ± 0.83
m1 = 0.005 | 48.29 ± 0.93 | 46.35 ± 0.81 | 46.18 ± 0.62 | 45.89 ± 0.61 | 46.32 ± 0.61 | 46.44 ± 0.72
m1 = 0.006 | 46.29 ± 0.73 | 45.1 ± 0.52 | 45.13 ± 0.52 | 44.86 ± 0.52 | 45.29 ± 0.52 | 45.21 ± 0.57
m1 = 0.007 | 45.25 ± 0.44 | 44.7 ± 0.4 | 44.53 ± 0.41 | 44.27 ± 0.42 | 44.69 ± 0.42 | 44.42 ± 0.43
m1 = 0.009 | 44.86 ± 0.41 | 44.51 ± 0.4 | 44.34 ± 0.4 | 43.89 ± 0.4 | 44.11 ± 0.4 | 44.04 ± 0.4
m1 = 0.011 | 44.66 ± 0.4 | 44.32 ± 0.4 | 44.16 ± 0.4 | 44.09 ± 0.4 | 44.31 ± 0.4 | 44.24 ± 0.4
m1 = 0.013 | 44.87 ± 0.4 | 44.53 ± 0.4 | 44.16 ± 0.4 | 43.9 ± 0.4 | 44.32 ± 0.4 | 44.24 ± 0.4
m1 = 0.015 | 45.08 ± 0.4 | 44.73 ± 0.4 | 44.17 ± 0.4 | 44.1 ± 0.4 | 44.14 ± 0.4 | 44.06 ± 0.4
m1 = 0.017 | 44.89 ± 0.4 | 44.54 ± 0.4 | 44.18 ± 0.4 | 44.3 ± 0.4 | 44.14 ± 0.4 | 44.26 ± 0.4

C[C@H](CCC(=O)[O-])[C@H]1CC[C@H]2[C@@H]3[C@H](O)C[C@@H]4C[C@H](O)CC[C@]4(C)[C@H]3C[C@H](O)[C@]12C.[Na+] [sodium cholate] + O
surface tension liquid-gas [mN/m]
Conditions | 293.15 K | 298.15 K | 303.15 K | 308.15 K | 313.15 K | 318.15 K
m1 = 0.001 | 63.15 ± 0.74 | 62.55 ± 0.69 | 61.55 ± 0.81 | 61.35 ± 0.59 | 60 ± 0.66 | 59.45 ± 0.67
m1 = 0.002 | 61.61 ± 0.67 | 61.03 ± 0.66 | 60.07 ± 0.65 | 59.88 ± 0.64 | 58.96 ± 0.57 | 58.1 ± 0.57
m1 = 0.003 | 60.5 ± 0.59 | 59.94 ± 0.59 | 59.01 ± 0.53 | 58.83 ± 0.58 | 57.95 ± 0.56 | 57.45 ± 0.51
m1 = 0.004 | 59.43 ± 0.61 | 58.89 ± 0.57 | 58.33 ± 0.58 | 57.82 ± 0.59 | 56.98 ± 0.55 | 56.5 ± 0.54
m1 = 0.006 | 57.08 ± 0.58 | 56.89 ± 0.56 | 56.04 ± 0.55 | 55.58 ± 0.55 | 55.14 ± 0.54 | 54.69 ± 0.53
m1 = 0.008 | 55.21 ± 0.5 | 55.03 ± 0.52 | 54.52 ± 0.5 | 54.09 ± 0.5 | 53.41 ± 0.51 | 52.99 ± 0.5
m1 = 0.01 | 54.04 ± 0.49 | 53.57 ± 0.49 | 53.09 ± 0.48 | 52.68 ± 0.47 | 52.05 ± 0.45 | 51.65 ± 0.47
m1 = 0.014 | 51.04 ± 0.44 | 50.87 ± 0.43 | 50.43 ± 0.43 | 50.32 ± 0.43 | 50.26 ± 0.43 | 49.42 ± 0.43
m1 = 0.018 | 50.55 ± 0.4 | 50.64 ± 0.4 | 50.2 ± 0.4 | 49.59 ± 0.4 | 49.07 ± 0.41 | 48.73 ± 0.4
m1 = 0.022 | 50.83 ± 0.4 | 50.4 ± 0.4 | 50.22 ± 0.4 | 49.61 ± 0.4 | 49.09 ± 0.4 | 48.75 ± 0.4
m1 = 0.026 | 50.59 ± 0.4 | 50.17 ± 0.4 | 49.99 ± 0.4 | 49.63 ± 0.4 | 49.11 ± 0.4 | 48.77 ± 0.4
m1 = 0.03 | 50.62 ± 0.4 | 50.2 ± 0.4 | 50.26 ± 0.4 | 49.9 ± 0.4 | 49.37 ± 0.4 | 48.56 ± 0.4
